The subject of assay [1] is ovarian cancer cells (PA-1). Description: Cancer cell line growth inhibition (SRB assay). The format is cell-based. The conditions noted are these: read-out: Cancer Cell Line GI50 Range PA-1. Background: The SRB assay estimates cell density from bound dye.
The next assay concerns the target T1, human TTK (Homo sapiens, UniProt P33981).
T1 construct: amino terminal GST fusion of full length human TTK; purchased Invitrogen
T1 sequence (P33981 1-857): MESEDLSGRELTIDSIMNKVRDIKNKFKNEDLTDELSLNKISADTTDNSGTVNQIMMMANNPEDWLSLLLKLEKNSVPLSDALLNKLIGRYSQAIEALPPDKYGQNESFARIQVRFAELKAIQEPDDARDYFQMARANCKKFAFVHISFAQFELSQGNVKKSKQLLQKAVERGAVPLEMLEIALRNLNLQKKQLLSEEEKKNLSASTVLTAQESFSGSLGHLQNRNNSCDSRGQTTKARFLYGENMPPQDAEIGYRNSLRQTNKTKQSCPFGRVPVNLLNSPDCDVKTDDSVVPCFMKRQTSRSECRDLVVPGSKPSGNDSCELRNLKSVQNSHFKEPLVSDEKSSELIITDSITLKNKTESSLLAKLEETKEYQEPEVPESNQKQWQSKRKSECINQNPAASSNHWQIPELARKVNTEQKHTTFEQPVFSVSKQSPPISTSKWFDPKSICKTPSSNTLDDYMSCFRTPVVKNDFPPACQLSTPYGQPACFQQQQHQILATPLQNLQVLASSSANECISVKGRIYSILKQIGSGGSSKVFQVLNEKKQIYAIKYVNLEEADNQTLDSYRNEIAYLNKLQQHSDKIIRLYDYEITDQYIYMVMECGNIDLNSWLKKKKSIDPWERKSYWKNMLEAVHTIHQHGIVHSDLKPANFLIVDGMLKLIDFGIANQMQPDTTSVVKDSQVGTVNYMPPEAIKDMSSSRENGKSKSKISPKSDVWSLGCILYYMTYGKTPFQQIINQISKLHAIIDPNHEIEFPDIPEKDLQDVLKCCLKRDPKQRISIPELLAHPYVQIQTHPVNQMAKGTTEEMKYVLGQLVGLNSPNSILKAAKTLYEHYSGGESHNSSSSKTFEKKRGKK
Description: TTK inhibition assay (indirect ELISA). In kind it is biochemical. The conditions noted are these: read-out: TTK IC50 Range. A general note: ELISA stands for enzyme-linked immunosorbent assay.

Assay [2] deals with colon cancer cells (HCT116). Description: Cancer cell line growth inhibition (SRB assay). The conditions noted are these: Homo sapiens, HCT-116, read-out: Cancer Cell Line GI50 Range HCT116. The format is cell-based.
[3] abbreviates: PA-1 ovarian cancer cells, SRB assay.
Setting [4] is: HCT116 colon cancer cells, SRB assay.

Read-outs that look alike come from different tables or passages of the source.

The source of these data is patent US9580390B2, “Indazole compounds as kinase inhibitors and method of treating cancer with same” (University Health Network, priority 2011, dated 2017).

What is called GI50 is the concentration at which growth is held to half of that of the control. The IC50 is the concentration at which inhibition is half-maximal.

Consider `CN1CCC(Oc2ccc(-c3n[nH]c4ccc(C(=O)NCC5(N6CCOCC6)CCCC5)cc34)cc2)CC1` [Example A428, 3-(4-((1-methylpiperidin-4-yl)oxy)phenyl)-N-((1-morpholinocyclopentyl)methyl)-1H-indazole-5-carboxamide], for which the GI50 in assay [1] (setting [3]) and in assay [2] (setting [4]) was 100 to 500 nM in each case. The half-inhibitory concentration (IC50) at human TTK was less than 100 nM.
Turning to `O=CN1C2CCC1CC(Oc1ccc(-c3n[nH]c4ccc(C(=O)N[C@@H](c5ccccn5)C5CC5)cc34)cc1)C2` (stereo partly drawn) [Example A353, N-((R)-cyclopropyl(pyridin-2-yl)methyl)-3-(4-(((1R,3R,5S)-8-formyl-8-azabicyclo[3.2.1]octan-3-yl)oxy)phenyl)-1H-indazole-5-carboxamide], the GI50 in assay [1] (Homo sapiens, PA-1) was less than 100 nM; in assay [2], less than 100 nM. Moreover, the IC50 on human TTK is less than 100 nM.
Consider `CN1CCC(Oc2ccc(-c3n[nH]c4ccc(C(=O)NCC5(c6ccccn6)CCCCC5)cc34)cc2)CC1` [Example A474, 3-(4-((1-methylpiperidin-4-yl)oxy)phenyl)-N-((1-(pyridin-2-yl)cyclohexyl)methyl)-1H-indazole-5-carboxamide], for which the GI50 in assay [1] (setting [3]) and in assay [2] (setting [4]) was 100 to 500 nM throughout. Further, the IC50 on human TTK is less than 100 nM.
As to `O=C(NCC1(N2CCOCC2)CCCCC1)c1ccc2[nH]nc(-c3ccc(O[C@@H]4CCC[C@H](O)C4)cc3)c2c1` (relative stereo) [Example A497, cis-3-(4-(((1R,3S)-3-hydroxycyclohexyl)oxy)phenyl)-N-((1-morpholinocyclohexyl)methyl)-1H-indazole-5-carboxamide], the GI50 in assay [1] (setting [3]) and in assay [2] (setting [4]) was 100 to 500 nM each time. Moreover, on human TTK, the IC50 is less than 100 nM.
For `CC(C)[C@H](NC(=O)c1ccc2[nH]nc(-c3ccc(OC4CCN(C5COC5)CC4)nc3)c2c1)c1ccccc1Cl` [Example A294, (S)-N-(1-(2-chlorophenyl)-2-methylpropyl)-3-(6-((1-(oxetan-3-yl)piperidin-4-yl)oxy)pyridin-3-yl)-1H-indazole-5-carboxamide], the GI50 in assay [1] (Homo sapiens, PA-1) was 100 to 500 nM; in assay [2], 100 to 500 nM. Besides, the IC50 on human TTK is less than 100 nM.
As for `CN1CCC(Oc2ccc(-c3n[nH]c4ccc(C(=O)NCC5(c6ccccc6F)CCOCC5)cc34)cc2)CC1` [Example A476, N-((4-(2-fluorophenyl)tetrahydro-2H-pyran-4-yl)methyl)-3-(4-((1-methylpiperidin-4-yl)oxy)phenyl)-1H-indazole-5-carboxamide], the GI50 in assay [1] (setting [3]) and in assay [2] (setting [4]) was 100 to 500 nM in each case. The IC50 on human TTK is less than 100 nM.
Regarding `O=C(NC(c1ccccc1)C1CC1)c1ccc2[nH]nc(-c3ccc(N[C@H]4CC[C@H](O)CC4)cc3)c2c1` (stereo partly drawn) [Example A106, trans-N-(cyclopropyl(phenyl)methyl)-3-(4-(((1r,4r)-4-hydroxycyclohexyl)amino)phenyl)-1H-indazole-5-carboxamide], the GI50 in assay [1] (setting [3]) and in assay [2] (setting [4]) was less than 100 nM in each case. The IC50 at human TTK was less than 100 nM.
On to `O=C(NCC1(N2CCOCC2)CCCCC1)c1ccc2[nH]nc(-c3ccc(N4CCC(O)CC4)cc3)c2c1` [Example A427, 3-(4-(4-hydroxypiperidin-1-yl)phenyl)-N-((1-morpholinocyclohexyl)methyl)-1H-indazole-5-carboxamide], for which the 50% growth inhibitory concentration (GI50) in assay [1] (setting [3]) and in assay [2] (setting [4]) was less than 100 nM in each case. The IC50 at human TTK was less than 100 nM.
With `COc1ccc(NC(=O)Nc2ccc3[nH]nc(-c4ccc(OC5CCN(C)CC5)cc4)c3c2)c(C)c1` [Example A81, 1-(4-methoxy-2-methylphenyl)-3-(3-(4-((1-methylpiperidin-4-yl)oxy)phenyl)-1H-indazol-5-yl)urea], the GI50 in assay [1] (setting [3]) and in assay [2] (setting [4]) was 100 to 500 nM in each case. Also, at human TTK, the IC50 fell in the range of 100 to 500 nM.
As to `O=C(NCC1(c2cccs2)CCOCC1)c1ccc2[nH]nc(-c3ccc(N4CCOCC4)cc3)c2c1` [Example A436, 3-(4-morpholinophenyl)-N-((4-(thiophen-2-yl)tetrahydro-2H-pyran-4-yl)methyl)-1H-indazole-5-carboxamide], the GI50 lay in the range of 100 to 500 nM in assay [1] (Homo sapiens, PA-1) and 100 to 500 nM in assay [2]. Also, the half-maximal inhibitory concentration (IC50) at human TTK was less than 100 nM.
Regarding `C[C@@H](O)CN1CCC(Oc2ccc(-c3n[nH]c4ccc(C(=O)N[C@H](c5ccccn5)C5CCCC5)cc34)cc2)CC1` [Example A230, N-((S)-cyclopentyl(pyridin-2-yl)methyl)-3-(4-((1-((R)-2-hydroxypropyl)piperidin-4-yl)oxy)phenyl)-1H-indazole-5-carboxamide], the 50% growth inhibitory concentration (GI50) is less than 100 nM in assay [1] (Homo sapiens, PA-1) and less than 100 nM in assay [2]. Besides, the IC50 at human TTK is less than 100 nM.
In the case of `O=CN1CCC(Oc2ccc(-c3n[nH]c4ccc(C(=O)NC(c5ccsc5)C5CCC5)cc34)cc2)CC1` (stereo not drawn) [Example A330, N-(cyclobutyl(thiophen-3-yl)methyl)-3-(4-((1-formylpiperidin-4-yl)oxy)phenyl)-1H-indazole-5-carboxamide], the GI50 in assay [1] (Homo sapiens, PA-1) is less than 100 nM; in assay [2], less than 100 nM. The IC50 on human TTK was less than 100 nM.
Take `O=C(NCC1(N2CCOCC2)CCCC1)c1ccc2[nH]nc(-c3ccc(O[C@@H]4CCC[C@H](O)C4)cc3)c2c1` (relative stereo) [Example A496, rel-3-(4-(((1R,3S)-3-hydroxycyclohexyl)oxy)phenyl)-N-((1-morpholinocyclopentyl)methyl)-1H-indazole-5-carboxamide]: the GI50 in assay [1] (setting [3]) and in assay [2] (setting [4]) was 100 to 500 nM each time. The IC50 on human TTK was less than 100 nM.
As for `O=C(NCC1(CN2CCOCC2)CC1)c1ccc2[nH]nc(-c3ccc(N4CCOCC4)cc3)c2c1` [Example A494, N-((1-(morpholinomethyl)cyclopropyl)methyl)-3-(4-morpholinophenyl)-1H-indazole-5-carboxamide], the 50% growth inhibitory concentration (GI50) in assay [1] (setting [3]) and in assay [2] (setting [4]) was more than 500 nM in each case. For the same compound, the IC50 at human TTK was less than 100 nM.
For `O=C(NCC1(c2cccs2)CCOCC1)c1ccc2[nH]nc(-c3ccc(OC4CCN(C5COC5)CC4)cc3)c2c1` [Example A433, 3-(4-((1-(oxetan-3-yl)piperidin-4-yl)oxy)phenyl)-N-((4-(thiophen-2-yl)tetrahydro-2H-pyran-4-yl)methyl)-1H-indazole-5-carboxamide], the GI50 was 100 to 500 nM in assay [1] (Homo sapiens, PA-1) and 100 to 500 nM in assay [2]. The IC50 on human TTK is less than 100 nM.
For the compound `O=C(CC1(c2ccccc2)COC1)Nc1ccc2[nH]nc(-c3ccc(OC4CCN(C5COC5)CC4)cc3)c2c1` [Example A462, N-(3-(4-((1-(oxetan-3-yl)piperidin-4-yl)oxy)phenyl)-1H-indazol-5-yl)-2-(3-phenyloxetan-3-yl)acetamide], the GI50 in assay [1] (Homo sapiens, PA-1) is more than 500 nM; in assay [2], more than 500 nM. Moreover, at human TTK, the IC50 was in the range of 100 to 500 nM.
`O=C(NC(c1ccccn1)C1CC1)c1ccc2[nH]nc(-c3ccc(N4CCOCC4)cc3)c2c1` (stereo not drawn) [Example A383, N-(cyclopropyl(pyridin-2-yl)methyl)-3-(4-morpholinophenyl)-1H-indazole-5-carboxamide]: the GI50 in assay [1] (Homo sapiens, PA-1) fell in the range of 100 to 500 nM; in assay [2], 100 to 500 nM. Also, the IC50 on human TTK was less than 100 nM.
On to `CN1CCC(Oc2ccc(-c3n[nH]c4ccc(C(=O)NCC5(c6ccncc6)CCOCC5)cc34)cc2)CC1` [Example A478, 3-(4-((1-methylpiperidin-4-yl)oxy)phenyl)-N-((4-(pyridin-4-yl)tetrahydro-2H-pyran-4-yl)methyl)-1H-indazole-5-carboxamide], for which the GI50 in assay [1] (setting [3]) and in assay [2] (setting [4]) was more than 500 nM each time. In addition, on human TTK, the IC50 is less than 100 nM.
Turning to `O=C(NC(c1ccccc1)C1CC1)c1ccc2[nH]nc(-c3ccc(OCCn4ccnc4)cc3)c2c1` (stereo not drawn) [Example A165, 3-(4-(2-(1H-imidazol-1-yl)ethoxy)phenyl)-N-(cyclopropyl(phenyl)methyl)-1H-indazole-5-carboxamide], the GI50 in assay [1] (setting [3]) and in assay [2] (setting [4]) was more than 500 nM each time. For the same compound, the IC50 on human TTK is less than 100 nM.
Regarding `CN1CC[C@@H](Oc2ccc(-c3n[nH]c4ccc(C(=O)NCC5(N6CCOCC6)CCCCC5)cc34)cc2)C1` [Example A481, (R)-3-(4-((1-methylpyrrolidin-3-yl)oxy)phenyl)-N-((1-morpholinocyclohexyl)methyl)-1H-indazole-5-carboxamide], the GI50 in assay [1] (setting [3]) and in assay [2] (setting [4]) was 100 to 500 nM in each case. Besides, the IC50 on human TTK is less than 100 nM.
Take `C[C@H](O)C(=O)N1CCC(Oc2ccc(-c3n[nH]c4ccc(C(=O)N[C@H](c5ccccc5)C5CC5)cc34)cc2)CC1` [Example A377, N-((S)-cyclopropyl(phenyl)methyl)-3-(4-((1-((S)-2-hydroxypropanoyl)piperidin-4-yl)oxy)phenyl)-1H-indazole-5-carboxamide]: the GI50 fell in the range of 100 to 500 nM in assay [1] (Homo sapiens, PA-1) and 100 to 500 nM in assay [2]. For the same compound, the IC50 at human TTK was less than 100 nM.
